Laboratory results from ChEMBL document CHEMBL1133412, “Rational design, synthesis and structure-activity relationships of antitumor (E)-2-benzylidene-1-tetralones and (E)-2-benzylidene-1-indanones” (Bioorg Med Chem Lett, 2000).
The source made the active and inactive calls.

Tests used:
Assay type in all cases: functional, cell-based
[1] = tested on: WIL2; experiment: Cytotoxicity was evaluated against WIL2 tumor cell lines; Slightly active; settings: Homo sapiens
[2] = tested on: NIH3T3; experiment: Cytotoxicity was evaluated against NIH3T3 tumor cell lines; Slightly active; settings: Mus musculus
[3] = tested on: NCI-H292; experiment: Cytotoxicity was evaluated against H292 tumor cell lines; Slightly active; settings: Homo sapiens
[4] = tested on: B16; experiment: Cytotoxicity was evaluated against B16 tumor cell lines; Slightly active; settings: Mus musculus
[5] = tested on: NCI-H596; experiment: Cytotoxicity was evaluated against H596 tumor cell lines; Slightly active; settings: Homo sapiens
[6] = tested on: WI-38; experiment: Cytotoxicity was evaluated against WI38 tumor cell lines; Slightly active; settings: Homo sapiens
[7] = tested on: MOLT-4; experiment: Cytotoxicity was evaluated against Molt-4 tumor cell lines; Slightly active; settings: Homo sapiens
[8] = tested on: HL-60; experiment: Cytotoxicity was evaluated against HL-60 tumor cell lines; Slightly active; settings: Homo sapiens
[9] = tested on: MCF7; experiment: Cytotoxicity was evaluated against MCF-7 tumor cell lines; Slightly active; settings: Homo sapiens
[10] = tested on: CCRF-CEM; experiment: Cytotoxicity was evaluated against CEM tumor cell lines; Slightly active; settings: Homo sapiens
[11] = tested on: L1210; experiment: Cytotoxicity was evaluated against L1210 tumor cell lines; Slightly active; settings: Mus musculus
[12] = tested on: A549; experiment: Cytotoxicity was evaluated against A549 tumor cell lines; Slightly active; settings: Homo sapiens
[13] = tested on: Jurkat; experiment: In vitro test for antitumor activity against human Jurkat cell line using a formazan dye (MTT) conversion assay.
[14] = tested on: K562; experiment: Cytotoxicity was evaluated against K562 tumor cell lines; Slightly active; settings: Homo sapiens
[15] = tested on: NIH3T3; experiment: Cytotoxicity was evaluated against NIH3T3 tumor cell lines; Inactive; settings: Mus musculus
[16] = tested on: WIL2; experiment: Cytotoxicity was evaluated against WIL2 tumor cell lines; Inactive; settings: Homo sapiens
[17] = tested on: B16; experiment: Cytotoxicity was evaluated against B16 tumor cell lines; Inactive; settings: Mus musculus
[18] = tested on: MCF7; experiment: Cytotoxicity was evaluated against MCF-7 tumor cell lines; Inactive; settings: Homo sapiens
[19] = tested on: L1210; experiment: Cytotoxicity was evaluated against L1210 tumor cell lines; Inactive; settings: Mus musculus
[20] = tested on: CCRF-CEM; experiment: Cytotoxicity was evaluated against CEM tumor cell lines; Inactive; settings: Homo sapiens
[21] = tested on: A549; experiment: Cytotoxicity was evaluated against A549 tumor cell lines; Inactive; settings: Homo sapiens
[22] = tested on: K562; experiment: Cytotoxicity was evaluated against K562 tumor cell lines; Inactive; settings: Homo sapiens
[23] = tested on: HL-60; experiment: Cytotoxicity was evaluated against HL-60 tumor cell lines; Inactive; settings: Homo sapiens
[24] = tested on: WI-38; experiment: Cytotoxicity was evaluated against WI38 tumor cell lines; Inactive; settings: Homo sapiens
[25] = tested on: MOLT-4; experiment: Cytotoxicity was evaluated against Molt-4 tumor cell lines; Inactive; settings: Homo sapiens
[26] = tested on: NCI-H292; experiment: Cytotoxicity was evaluated against H292 tumor cell lines; Inactive; settings: Homo sapiens
[27] = tested on: NCI-H596; experiment: Cytotoxicity was evaluated against H596 tumor cell lines; Inactive; settings: Homo sapiens

COc1cc2c(cc1OC)C(=O)/C(=C/c1cc(C)ccc1C)C2
active: Cytotoxicity [1] Weak activity | Cytotoxicity [2] Weak activity | Cytotoxicity [3] Weak activity | Cytotoxicity [4] Weak activity | Cytotoxicity [5] Weak activity | Cytotoxicity [6] Weak activity | Cytotoxicity [7] Weak activity | Cytotoxicity [8] Weak activity | Cytotoxicity [9] Weak activity | Cytotoxicity [10] Weak activity | Cytotoxicity [11] Weak activity | Cytotoxicity [12] Weak activity | Cytotoxicity [14] Weak activity
30.5 µM: IC50 [13]

O=C1/C(=C/c2cc(Cl)cc(Cl)c2)Cc2cc(O)c(O)cc21
> 50 µM: IC50 [13]
inactive: Cytotoxicity [15] | Cytotoxicity [16] | Cytotoxicity [17] | Cytotoxicity [18] | Cytotoxicity [19] | Cytotoxicity [20] | Cytotoxicity [21] | Cytotoxicity [22] | Cytotoxicity [23] | Cytotoxicity [24] | Cytotoxicity [25] | Cytotoxicity [26] | Cytotoxicity [27]

COc1cc2c(cc1OC)C(=O)/C(=C/c1cccc([N+](=O)[O-])c1)C2
22 µM: IC50 [13]
active: Cytotoxicity [1] Weak activity | Cytotoxicity [2] Weak activity | Cytotoxicity [3] Weak activity | Cytotoxicity [4] Weak activity | Cytotoxicity [5] Weak activity | Cytotoxicity [6] Weak activity | Cytotoxicity [7] Weak activity | Cytotoxicity [8] Weak activity | Cytotoxicity [9] Weak activity | Cytotoxicity [10] Weak activity | Cytotoxicity [11] Weak activity | Cytotoxicity [12] Weak activity | Cytotoxicity [14] Weak activity

COc1cc2c(cc1OC)C(=O)/C(=C/c1c(OC)cccc1OC)CC2
inactive: Cytotoxicity [15] | Cytotoxicity [16] | Cytotoxicity [17] | Cytotoxicity [18] | Cytotoxicity [19] | Cytotoxicity [20] | Cytotoxicity [21] | Cytotoxicity [22] | Cytotoxicity [23] | Cytotoxicity [24] | Cytotoxicity [25] | Cytotoxicity [26] | Cytotoxicity [27]
> 50 µM: IC50 [13]

COc1ccccc1/C=C1\CCc2cc(OC)c(OC)cc2C1=O
inactive: Cytotoxicity [15] | Cytotoxicity [16] | Cytotoxicity [17] | Cytotoxicity [18] | Cytotoxicity [19] | Cytotoxicity [20] | Cytotoxicity [21] | Cytotoxicity [22] | Cytotoxicity [23] | Cytotoxicity [24] | Cytotoxicity [25] | Cytotoxicity [26] | Cytotoxicity [27]
> 50 µM: IC50 [13]

COc1cc2c(c(N)c1O)C/C(=C\c1cc(C)c(O)c(C)c1)C2=O
30 µM: IC50 [13]
active: Cytotoxicity [1] Weak activity | Cytotoxicity [2] Weak activity | Cytotoxicity [3] Weak activity | Cytotoxicity [4] Weak activity | Cytotoxicity [5] Weak activity | Cytotoxicity [6] Weak activity | Cytotoxicity [7] Weak activity | Cytotoxicity [8] Weak activity | Cytotoxicity [9] Weak activity | Cytotoxicity [10] Weak activity | Cytotoxicity [11] Weak activity | Cytotoxicity [12] Weak activity | Cytotoxicity [14] Weak activity

COc1cc2c(c([N+](=O)[O-])c1OC)C(=O)/C(=C/c1cc(C)c([N+](=O)[O-])c(C)c1)C2
> 50 µM: IC50 [13]
inactive: Cytotoxicity [15] | Cytotoxicity [16] | Cytotoxicity [17] | Cytotoxicity [18] | Cytotoxicity [19] | Cytotoxicity [20] | Cytotoxicity [21] | Cytotoxicity [22] | Cytotoxicity [23] | Cytotoxicity [24] | Cytotoxicity [25] | Cytotoxicity [26] | Cytotoxicity [27]
